Common to all, as to format: in vivo
In assay [1] the test system is maternally separated mice. In words: Morris water maze in early-life stress mice. The following applies: early-life stressed mice, 90 mg/kg/day (FIG. 45). As for the experimental part: (§1) At postnatal day 1, pups were culled to have 6 pups per mother. From postnatal day 1 to 14, unpredictable maternal separation (MS) of a period of 3 hours daily was carried out. Maternal separation was performed at random times (from 8 am to 2 pm) to avoid the habituation of the mother to the procedure. The protocol consisted of removing pups from their mother to another cage at room temperature for a 3 hour period, after which the pups were returned to their original nest. These groups are denoted as early-life stress in the figures. A control group of dam/pups was left undisturbed and is denoted in the figures as normal.
(§2) One week after maternal separation mice were separated into two groups. One control group received the standard mouse chow diet (Untreated), while the other group received the ellagitannin punicalagin admixed into the food and designed to deliver a dose of 90 mg/kg/day to the mice. Treatment with the diet began 1 week after the termination of the maternal separation treatment. […]
The Morris water maze behavioral assay was employed to assess the cognitive impact of maternal separation. In this assay, cognitive learning is measured by the ability of a mouse to locate a hidden platform in a pool of opaque water. […] Escape latency to reach the platform was measured by a video tracking system.

Assay [2] has as its system maternally separated mice. Put plainly: Elevated O-maze in early-life stress mice. The following applies: 90 mg/kg/day in food (FIG. 40). On the procedure:
as §1, §2
To examine the effect of early life stress, mice were placed at the entrance of one of the areas of the maze with the 5 cm walls, with the nose facing the closed arm, and were allowed to explore the EOM for 5 min. […] The time spent in each arm (closed versus open) was calculated, with an entry into the arm only being considered to have occurred when the animal placed all four paws in the arm.

For assay [3], the system named is normal mice. Put plainly: Treadmill endurance test in normal mice. The following applies: 55 mg/kg/day in food, 6 weeks of treatment (FIG. 49). On the procedure: Normal 8-week-old mice were acclimated for 2 weeks prior to the start of the study. Mice were fed with a standard rodent diet (chow diet) or a diet containing urolithin A mixed with the food to reach a dosing of 55 mg/kg/day delivered to the mice. Following 6 weeks of treatment, mice were tested for their muscle performance by means of an endurance test.
An endurance test was performed using a variable speed belt treadmill enclosed in a plexiglass chamber with a stimulus device consisting of a shock grid attached to the rear of the belt (Panlab, Barcelona, Spain). Mice were run at 10 cm/sec and a 0° of incline for 5 min. Speed was then incremented by 2 cm/sec every 5 min, until mice were exhausted. The distance run and the number of shocks obtained over 5 min intervals were recorded. Mice were considered exhausted and removed from the experiment when they received approximately 20 shocks in a period of 1 min. Control untreated and urolithin A-treated mice were tested and compared for their performance.
Improved muscle performance and endurance is reflected by an ability to run at higher speeds on the treadmill. Mice will seek to avoid the shock and will run despite the increasing speed. At a certain point the mice are unable to keep up with the treadmill speed and are shocked. After reaching the threshold levels of shocks, mice are removed from the treadmill. […]

Assay [4] deals with aged C. elegans (wild-type Bristol N2). Put plainly: Oxygen consumption (Seahorse XF24) in aged C. elegans. The following applies: 10-day-old worms, 30 μM urolithin A in 0.1% DMSO, 30 minute period (FIGS. 25A, 25B). As for the experimental part: C. elegans strains were cultured at 20° C. on nematode growth media (NGM) agar plates seeded with E. coli strain OP50. Strain used was wild-type Bristol N2 provided by the Caenorhabditis Genetics Center (University of Minnesota). Urolithin A was dissolved in DMSO. Animals were exposed to compounds from eggs on plates seeded with live OP50 bacteria. Control plates were prepared with the corresponding concentration of DMSO (0.1%).
Measurement of oxygen consumption is a direct indicator of mitochondrial activity. The effect of urolithin A on mitochondrial activity in aged C. elegans (10 days old) was assessed by treating C. elegans with urolithin A for 10 days of adulthood, at which time oxygen consumption was measured using the Seahorse XF24 equipment (Seahorse Bioscience Inc., North Billerica, Mass.). 250 ten-day-old C. elegans were used per condition. […] Worms were transferred into 24-well standard Seahorse plates (#100777-004) (50 worms per well) and oxygen consumption was measured. The basal oxygen consumption of the worms was first measured over 30 minutes at 5 minute intervals (0 min, 5 min, 15 min, 20 min, 25 min and 30 min) with 5 replicates per interval. Respiration rates were normalized to the exact number of worms per well determined after the completion of the experiment using a stereomicroscope. […]

As for `O=C1O[C@H]2[C@@H]3OC(=O)c4cc(O)c(O)c(O)c4-c4c(O)c(O)c5oc(=O)c6c(c(O)c(O)c7oc(=O)c4c5c76)-c4c(cc(O)c(O)c4O)C(=O)OC[C@H]3OC(O)[C@@H]2OC(=O)c2cc(O)c(O)c(O)c2-c2c1cc(O)c(O)c2O` (mixture of isomers) [punicalagin, 2,3 hexahydroxydiphenoyl-4,6-gallagylglucose], the “escape latency in Morris water maze (cognitive learning)” value in assay [1] is recorded as “reducing the time to learn the location of the hidden platform to levels observed in normal non-stressed mice”. Besides, the “time spent in open sections of O-maze (risk taking)” value in assay [2] was “reversed and normalized their abnormal excessive risk taking behaviour”.
In the case of `O=c1oc2cc(O)ccc2c2ccc(O)cc12` [urolithin A, 3,8-Dihydroxydibenzo-α-pyrone], the “muscle performance and endurance, treadmill speed” value in assay [3] is “ran at higher speeds than untreated control mice”. Moreover, in assay [4], the “uncoupled (FCCP) respiration, oxygen consumption AUC” value is “significantly increased uncoupled respiration”.
